Laboratory results: US8361988B2, “Nucleoside and nucleotide analogues with quaternary carbon centers and methods of use” (Institut de Recherches Cliniques de Montreal, priority 2007, dated 2013)

How the values were obtained:
in vitro [1] = conditions: human, NCI H2052 cells
[2] = target: T1, Drosophila melanogaster dNK (Drosophila melanogaster, UniProt Q9XZT6); test: Phosphorylation assay (spectrophotometric coupled-enzyme), D. melanogaster dNK; assay type: biochemical; conditions: substrate at 100 μM, 37° C., 1 mM ATP, triplicate
T1 sequence (Q9XZT6 1-250): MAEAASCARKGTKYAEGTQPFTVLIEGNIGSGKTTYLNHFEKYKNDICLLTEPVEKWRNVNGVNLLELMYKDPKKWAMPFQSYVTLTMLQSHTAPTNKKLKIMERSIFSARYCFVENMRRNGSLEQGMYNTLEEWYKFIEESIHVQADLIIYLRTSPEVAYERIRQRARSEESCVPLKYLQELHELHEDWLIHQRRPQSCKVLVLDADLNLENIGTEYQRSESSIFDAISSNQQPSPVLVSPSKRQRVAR
Protocol: Compounds of the invention were also tested in a phosphorylation assay using three deoxynucleoside kinases. […] The compounds were at substrate concentration of 100 μM.
Kinetic assay. […] Briefly, the individual nucleosides at 100 μM were prepared in reaction buffer containing 50 mM Tris-HCl (pH 7.5), 0.1 M KCl, 5 mM MgCl2, 1 mM DTT, 1 mM ATP, 0.21 mM phosphoenolpyruvate, 0.18 mM NADH, and 2 units/ml pyruvate kinase and 2 units/ml lactate dehydrogenase (Roche Biochemicals, Indianapolis, Ind.). Assays were performed at 37° C. by measuring the absorbance change at 340 nm. The enzyme amount was adjusted to limit NADH turnover to 10% over the time of the experiment. All experiments were performed in triplicate.

[3] = target: Thermotoga maritima thymidine kinase (Thermotoga maritima, UniProt Q9WYN2); test: Phosphorylation assay (spectrophotometric coupled-enzyme), T. maritima TK; assay type: biochemical; conditions: substrate at 100 μM, 37° C., 1 mM ATP, triplicate
Protocol: Compounds of the invention were also tested in a phosphorylation assay using three deoxynucleoside kinases. The kinases include human dCK, which is responsible for the activation of numerous nucleoside analog prodrugs; Drosophila melanogaster dNK, which is the fastest known kinases with the broadest substrate specificity profile; and Thermotoga maritima thymidine kinase, which is a good surrogate for human thymidine kinase 1, a member of the distinct type II kinase subfamily. The compounds were at substrate concentration of 100 μM.
Kinetic assay. Substrate phosphorylation was determined using a spectrophotometric coupled-enzyme assay (Munch-Petersen et al. (2000) J. Biol. Chem. vol. 275p. 66′73-66′79; Schelling et al. (2001) Anal. Biochem vol. 295 p. 82-8′7). Briefly, the individual nucleosides at 100 μM were prepared in reaction buffer containing 50 mM Tris-HCl (pH 7.5), 0.1 M KCl, 5 mM MgCl2, 1 mM DTT, 1 mM ATP, 0.21 mM phosphoenolpyruvate, 0.18 mM NADH, and 2 units/ml pyruvate kinase and 2 units/ml lactate dehydrogenase (Roche Biochemicals, Indianapolis, Ind.). Assays were performed at 37° C. by measuring the absorbance change at 340 nm. The enzyme amount was adjusted to limit NADH turnover to 10% over the time of the experiment. All experiments were performed in triplicate.

ZR-75-1 = test: MTT cell proliferation assay, ZR-75-1; assay type: cell-based; conditions: Homo sapiens, ZR-75-1, 72 h, concentration reducing cell growth by 50% after 72 hours, 1% DMSO
Protocol: (§1) The antitumor activities of the compounds of the invention were evaluated by a cellular proliferation assay. The MTT [3-(4,5-dimethylthiazol-2-yl)-2,5-diphenyltetrazolium bromide] cell proliferation assay, first described by Mosmann (Mosmann T., “Rapid colorimetric assay for cellular growth and survival: application to proliferation and cytotoxicity assays,” J. Immunol. Methods 1983 Dec. 16; 65(1-2):55-63, and incorporated by reference in its entirety) is based on the ability of active mitochondrial reductase enzymes from viable cells to cleave the tetrazolium rings of the pale yellow MTT. The cleavage reaction form a purple formazan crystals which is largely impermeable to cell membranes resulting in its accumulation within healthy cells. Solubilisation of the cells by addition of a detergent liberates and solubilizes the formazan crystals. The number of surviving cells is directly proportional to the level of the formazan product created. The color can then be quantified spectrophotometrically. The production of purple formazan in cells treated with a compound is measured relative to the production in control cells, and dose-response curves can be generated. This assay measures the cell proliferation rate and conversely, when metabolic events lead to apoptosis or necrosis, the reduction in cell viability, thus also allowing the evaluation of the cytotoxicity of the analogues synthesized in the laboratory.
(§2) For Tables 3 and 4, the assays were performed with 1% DMSO. The abbreviation “n.d.” means “not determined.” The values EC50, CC50, and SI have the following definitions.
(§3) Cell growth equals total cell count without any inhibitor after 72 hours minus initial cell count. Total cell counts after 72 hrs of growth range from 230 to 346% of initial cell counts depending on the cell line.
(§4) Total cell counts after 24 hrs of growth range from 103 to 109% of initial cell counts depending on the cell line.
(§5) SI: Selectivity Index is the ratio CC50/EC50.

[4] = MTT cell proliferation assay, ZR-75-1; assay type: cell-based; conditions: human, ZR-75-1 cells, concentration causing 50% cell death of initial cell count over 24 hours, 1% DMSO
Protocol: as §1, §2, §3, §4, §5

Panc 02.03 = test: MTT cell proliferation assay, Panc 02.03; assay type: cell-based; conditions: Homo sapiens, concentration reducing cell growth by 50% after 72 hours, 1% DMSO
Protocol: (§6) The antitumor activities of the compounds of the invention were evaluated by a cellular proliferation assay. […] The cleavage reaction form a purple formazan crystals which is largely impermeable to cell membranes resulting in its accumulation within healthy cells. Solubilisation of the cells by addition of a detergent liberates and solubilizes the formazan crystals. The number of surviving cells is directly proportional to the level of the formazan product created. The color can then be quantified spectrophotometrically. The production of purple formazan in cells treated with a compound is measured relative to the production in control cells, and dose-response curves can be generated. This assay measures the cell proliferation rate and conversely, when metabolic events lead to apoptosis or necrosis, the reduction in cell viability, thus also allowing the evaluation of the cytotoxicity of the analogues synthesized in the laboratory.
as §2
(§7) Cell growth equals total cell count without any inhibitor after 72 hours minus initial cell count.
as §5

[5] = MTT cell proliferation assay, Panc 02.03; assay type: cell-based; conditions: human, Panc 02.03 cells, concentration causing 50% cell death of initial cell count over 24 hours, 1% DMSO
Protocol: as §6, §2, §7, §5

PFSK-1 = test: MTT cell proliferation assay, PFSK-1; assay type: cell-based; conditions: Homo sapiens, PFSK-1, 72 h, concentration reducing cell growth by 50% after 72 hours, 1% DMSO
Protocol: as §6, §2, §7, §5

[6] = MTT cell proliferation assay, PFSK-1; assay type: cell-based; conditions: human, PFSK-1 cells, concentration causing 50% cell death of initial cell count over 24 hours, 1% DMSO
Protocol: as §6, §2, §7, §5

in vitro [7] = conditions: human, NCI H1395 cells
in vitro [8] = conditions: human, MOLT-4 cells

Sequence of Thermotoga maritima thymidine kinase (Q9WYN2 whole entry): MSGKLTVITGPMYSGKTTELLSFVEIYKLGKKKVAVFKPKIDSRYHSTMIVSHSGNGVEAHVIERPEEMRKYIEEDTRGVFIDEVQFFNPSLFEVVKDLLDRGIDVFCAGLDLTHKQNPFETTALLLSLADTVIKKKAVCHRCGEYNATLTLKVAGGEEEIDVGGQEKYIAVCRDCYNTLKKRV

Row | SMILES | CC50 at 24 h (in vitro [1]) | D. melanogaster dNK substrate phosphorylation ([2]; listed as LCB-1009-1) | T. maritima TK substrate phosphorylation ([3]; listed as LCB-1009-1) | EC50 (ZR-75-1) | CC50 at 24 h [4] | EC50 (Panc 02.03) | CC50 at 24 h [5] | EC50 (PFSK-1) | CC50 at 24 h [6] | CC50 at 24 h (in vitro [7]) | D. melanogaster dNK substrate phosphorylation ([2]; listed as LCB-1010-1) | T. maritima TK substrate phosphorylation ([3]; listed as LCB-1010-1) | D. melanogaster dNK substrate phosphorylation ([2]; listed as LCB-1015-1) | T. maritima TK substrate phosphorylation ([3]; listed as LCB-1015-1) | D. melanogaster dNK substrate phosphorylation [2] | T. maritima TK substrate phosphorylation [3] | CC50 at 24 h (in vitro [8])
1 | COC(=O)C1(C)C[C@H](n2cc(C)c(=O)[nH]c2=O)O[C@@H]1CO (mixture of isomers) [LCB-1009, (±) methyl 2-(hydroxymethyl)-3-methyl-5-(5-methyl-2,4-dioxo-3,4-dihydropyrimidin-1(2H)-yl)tetrahydrofuran-3-carboxylate] | > 500 µM | 3.49 10^6 μmol/min mg | 11.9 10^−3 μmol/min mg | > 500 µM | > 500 µM | > 500 µM | > 500 µM | > 500 µM | > 500 µM | > 500 µM |  |  |  |  |  |  | 
2 | COC(=O)C1(C)CC(n2cc(C)c(=O)[nH]c2=O)OC1CO (racemic) [LCB-1010, (±) methyl 2-(hydroxymethyl)-3-methyl-5-(5-methyl-2,4-dioxo-3,4-dihydropyrimidin-1(2H)-yl)tetrahydrofuran-3-carboxylate] | > 500 µM |  |  | 180 µM | > 500 µM | > 500 µM | > 500 µM | > 500 µM | > 500 µM | > 500 µM | 2.84 10^6 μmol/min mg | 6 10^−3 μmol/min mg |  |  |  |  | 
3 | COC(=O)C1(C)C[C@H](n2cc(F)c(=O)[nH]c2=O)O[C@@H]1CO (mixture of isomers) [LCB-1015, 5-(5-Fluoro-2,4-dioxo-3,4-dihydro-2H-pyrimidin-1-yl)-2-hydroxymethyl-3-methyl-tetrahydro-furan-3-carboxylic acid methyl ester] | > 500 µM |  |  | 420 µM | > 500 µM | > 500 µM | > 500 µM | 380 µM | > 500 µM | > 500 µM |  |  | <0.1 10^6 μmol/min mg | <1 10^−3 μmol/min mg |  |  | 
4 | Cc1cc(=O)[nH]c(=O)n1[C@H]1CC(C)(CO)[C@@H](CO)O1 (mixture of isomers) [LCB-1021, 1-(4,5-Bis-hydroxymethyl-4-methyl-tetrahydro-furan-2-yl)-6-methyl-1H-pyrimidine-2,4-dione] | > 500 µM |  |  | > 500 µM | > 500 µM |  |  | > 500 µM | > 500 µM | > 500 µM |  |  |  |  | <0.1 10^6 μmol/min mg | 2.2 10^−3 μmol/min mg | > 500 µM
